Literature values as cited in patent publication US10034825B2, “Luminate eye gel” (Jan Marini Skin Research, priority 2015, dated 2018).

Details: after penetration through the skin to the living cells

## CC(=O)Oc1c(C)c(C)c2c(c1C)CCC(C)(CCC[C@H](C)CCC[C@H](C)CCCC(C)C)O2 (stereo partly shown) [Tocopheryl acetate]
  fraction converted to free tocopherol: about 5%
